Assays:
[1] = in vivo; conditions: rat
Excerpt: (§1) In the following table, ID50 is the dose which reduced the diameter of the wheal by 50% when injected intravenously together with the antigen. LD50 is the intravenous dose that caused death in 50% of the test animals. Therapeutic index is the ratio, LD50/ID50. The reference compounds utilized were: disodium chromoglycate (DSCG); 1-(phenoxy)-2-hydroxy-3-[2-(5-1H-tetrazolyl)-chromon-5-yloxy]-propane; 1-(4-chloro-phenoxy)-2-hydroxy-3-[2-(5-1H-tetrazolyl)-chromon-5-yloxy]-propane; 1-(4-hydroxy-phenoxy)-2-hydroxy-3-[2-5-1H-tetrazolyl)-chromon-5-yloxy]-propane; 1-(4-propyl-phenoxy)-2-hydroxy-3-[2-5-1H-tetrazolyl)-chromon-5-yloxy]-propane; and sodium 1-(4-cyano-phenoxy)-2-hydroxy-3-(2-carboxy-chromon-5-yloxy)-propane.

[2] = therapeutic index, LD50/ID50 (i.v. lethality over PCA); conditions: rat, in vivo, iv
Protocol: (§2) Compounds described in above examples 3 and 4 were evaluated for anti-allergic activity in the rat by the passive cutaneous anaphylaxis test (hereafter PCA), utilizing egg albumin as the antigen.
as §1

[3] = system: passive cutaneous anaphylaxis (skin wheals, egg albumin antigen); assay: passive cutaneous anaphylaxis (PCA) test, egg albumin as the antigen, i.v.; type: in vivo; conditions: dose that reduced wheal diameter by 50%, injected i.v. together with antigen, rat PCA; for ED50: iv, read-out: ID50 (i.v.)
Protocol: as §2
The intensity of such PCA reactions is assessed by measuring the diameters of wheals which develop in the skin of the test animals. Details of the PCA test can be found in the following references: I. Mota, Life Sciences, 1: 465 (1963); and B. Ogilvie, Immunology, 12: 113 (1967).
as §1

[4] = system: passive cutaneous anaphylaxis (skin wheals, egg albumin antigen); assay: therapeutic index, LD50/ID50 (i.v. lethality over PCA)
Protocol: as §2, §1

[5] = iv, LD50 (i.v.), i.v. dose that caused death in 50% of test animals
[6] = THERAPEUTIC INDEX, ratio LD50/ID50

Compound N#Cc1ccc(OCC(O)COc2cccc3oc(C(=O)O)cc(=O)c23)cc1.[Na] (stereo not drawn) has an LD50 ([1]; iv, LD50 (i.v.)) of 2380 µmol/kg and a selectivity ratio [2] of 3170.

For CCCc1ccc(OCC(O)COc2cccc3oc(-c4nnn[nH]4)cc(=O)c23)cc1 (stereo not drawn) [Augstein C3 H7], the ED50 [3] was greater than 25 µmol/kg, the LD50 [1, 5] was greater than 493 µmol/kg and the selectivity ratio [2, 6] was greater than 19.7.

O=c1cc(-c2nnn[nH]2)oc2cccc(OCC(O)COc3ccc(Cl)cc3)c12 (stereo not drawn) [Augstein Cl, 1-(4-chloro-phenoxy)-2-hydroxy-3-[2-(5-1H-tetrazolyl)-chromon-5-yloxy]-propane] gave an ED50 [3] of 1.8 µmol/kg, an LD50 ([1]; in vivo) greater than 1.8 µmol/kg and a selectivity ratio [2] greater than 1.

Work on O=c1cc(-c2nnn[nH]2)oc2cccc(OCC(O)COc3ccccc3)c12 (stereo not drawn) [Augstein H, 1-(phenoxy)-2-hydroxy-3-[2-(5-1H-tetrazolyl)-chromon-5-yloxy]-propane] yielded an ED50 [3] of 2.25 µmol/kg, an LD50 [1, 5] greater than 1050 µmol/kg and a selectivity ratio [2, 6] greater than 467.

With O=c1cc(-c2nnn[nH]2)oc2cccc(OCC(O)COc3ccc(O)cc3)c12 (stereo not drawn) [Augstein OH] the ED50 [3] was 0.675 µmol/kg, the LD50 [1, 5] was 1260 to 4950 µmol/kg and the selectivity ratio [2, 6] was 1870 to 7480.

Work on O=C(O)c1cc(=O)c2c(OCC(O)COc3cccc4oc(C(=O)O)cc(=O)c34)cccc2o1 [DSCG, disodium chromoglycate] yielded an ED50 [3] of 1.7 µmol/kg, an LD50 [1, 5] of 1950 µmol/kg and a selectivity ratio [2, 6] of 1150.

With N#Cc1ccc(OCC(O)COc2cccc3oc(-c4nnn[nH]4)cc(=O)c23)cc1 (stereo not drawn) [Ex. 3, 1-(4-CYANO-PHENOXY)-2-HYDROXY-3-[2-(5-1H-TETRAZOLYL)CHROMON-5-YLOXY]-PROPANE] the ED50 [3] was 0.075 µmol/kg, the LD50 [1, 5] was greater than 1180 µmol/kg and the selectivity ratio [2, 6] was greater than 15800. For the same compound, the “therapeutic index, times greater than the nearest conger disclosed in Warren” value ([4]; rat, in vivo) was “about 5 times” and the “therapeutic index, times greater than DSCG” value ([4]; versus DSCG) was “about 15 times”.

For N#Cc1ccc(OCC(O)COc2cccc3oc(-c4nnn[nH]4)cc(=O)c23)cc1 (stereo not drawn) [compound 4, SODIUM 1-(4-CYANOPHENOXY)-2-HYDROXY-3-[2-(5-1H-TETRAZOLYL)CHROMON-5-YLOXY]-PROPANE], the “ID50 (i.v.)” value [3] was 0.075 µmol/kg and the “therapeutic index compared with prior art compounds” value ([4]; versus any of the prior art compounds) was “still more superior than any of the prior art compounds”.
